Source: PMC5218480 (PLoS ONE, 2017)

Test system: MV-4-11 cells
Assay: Gene expression microarray analysis (Affymetrix PrimeView) and GSEA
Assay type: cell-based, human
Parameters: RFU PODN (11730768_x_at) / Fold change /veh PODN (11730768_x_at) / RFU LINC00158 (11744669_a_at) / Fold change /veh LINC00158 (11744669_a_at) / RFU DUSP10 (11751237_a_at) / Fold change /veh DUSP10 (11751237_a_at) / RFU ID3 (11757404_x_at) / Fold change /veh ID3 (11757404_x_at) / RFU PLEKHG5 (11737974_s_at) / Fold change /veh PLEKHG5 (11737974_s_at) / RFU LRRC4B (11730491_at) / Fold change /veh LRRC4B (11730491_at) / RFU GIMAP4 (11747438_a_at) / Fold change /veh GIMAP4 (11747438_a_at) / RFU KRT8 (11758183_x_at) / Fold change /veh KRT8 (11758183_x_at) / RFU CNN1 (11734310_a_at) / Fold change /veh CNN1 (11734310_a_at) / RFU VPS37D (11726825_at) / Fold change /veh VPS37D (11726825_at) / RFU C10orf10 (11716522_x_at) / Fold change /veh C10orf10 (11716522_x_at) / RFU KIR2DL2 /// KIR2DL4 /// KIR2DL5A /// KIR2DL5B /// KIR2DS1 /// KIR2DS2 /// KIR2DS3 /// KIR2DS4 /// KIR3DL3 /// KIR3DL3 /// KIR3DS1 (11738374_at) / Fold change /veh KIR2DL2 /// KIR2DL4 /// KIR2DL5A /// KIR2DL5B /// KIR2DS1 /// KIR2DS2 /// KIR2DS3 /// KIR2DS4 /// KIR3DL3 /// KIR3DL3 /// KIR3DS1 (11738374_at) / RFU C1QL1 (11718748_at) / Fold change /veh C1QL1 (11718748_at) / RFU TMPRSS4 (11747572_a_at) / Fold change /veh TMPRSS4 (11747572_a_at) / RFU HAMP (11756126_x_at) / Fold change /veh HAMP (11756126_x_at) / RFU RNFT2 (11725882_a_at) / Fold change /veh RNFT2 (11725882_a_at) / RFU NR4A2 (11747474_a_at) / Fold change /veh NR4A2 (11747474_a_at) / RFU ABCC12 (11746883_a_at) / Fold change /veh ABCC12 (11746883_a_at) / RFU TMEM136 (11760407_x_at) / Fold change /veh TMEM136 (11760407_x_at) / RFU CLDN22 /// WWC2 (11732394_at) / Fold change /veh CLDN22 /// WWC2 (11732394_at) / RFU HLA-DPB1 (11760878_x_at) / Fold change /veh HLA-DPB1 (11760878_x_at) / RFU SPINT1 (11716480_a_at) / Fold change /veh SPINT1 (11716480_a_at) / RFU GAP43 (11754022_s_at) / Fold change /veh GAP43 (11754022_s_at) / RFU A4GNT (11735810_at) / Fold change /veh A4GNT (11735810_at) / RFU PRB3 (11715151_x_at) / Fold change /veh PRB3 (11715151_x_at) / RFU TUBB4B (11761932_at) / Fold change /veh TUBB4B (11761932_at) / RFU CAPN14 (11732068_a_at) / Fold change /veh CAPN14 (11732068_a_at) / RFU TMCC2 (11721928_a_at) / Fold change /veh TMCC2 (11721928_a_at) / RFU IRGQ (11745062_a_at) / Fold change /veh IRGQ (11745062_a_at) / RFU FAM174B (11720279_a_at) / Fold change /veh FAM174B (11720279_a_at) / RFU TMPRSS4 (11748680_a_at) / Fold change /veh TMPRSS4 (11748680_a_at) / RFU FAM212B (11763350_a_at) / Fold change /veh FAM212B (11763350_a_at) / RFU PLEKHG5 (11743358_a_at) / Fold change /veh PLEKHG5 (11743358_a_at) / RFU ZSCAN30 (11745921_a_at) / Fold change /veh ZSCAN30 (11745921_a_at) / RFU CMKLR1 (11741424_a_at) / Fold change /veh CMKLR1 (11741424_a_at) / RFU LOC101060620 /// MAPK8IP1 (11723275_at) / Fold change /veh LOC101060620 /// MAPK8IP1 (11723275_at) / RFU SPTSSB (11747773_x_at) / Fold change /veh SPTSSB (11747773_x_at) / RFU PRSS12 (11739890_at) / Fold change /veh PRSS12 (11739890_at) / RFU BIN1 (11741810_x_at) / Fold change /veh BIN1 (11741810_x_at) / RFU WNT11 (11732464_a_at) / Fold change /veh WNT11 (11732464_a_at) / RFU C10orf10 (11716521_a_at) / Fold change /veh C10orf10 (11716521_a_at) / RFU C5orf56 (11738089_at) / Fold change /veh C5orf56 (11738089_at) / RFU CYB561 (11721691_x_at) / Fold change /veh CYB561 (11721691_x_at) / RFU ANKRD19P (11752326_a_at) / Fold change /veh ANKRD19P (11752326_a_at) / RFU OR2T12 /// OR2T33 /// OR2T8 (11738714_s_at) / Fold change /veh OR2T12 /// OR2T33 /// OR2T8 (11738714_s_at) / RFU VCAN (11748164_a_at) / Fold change /veh VCAN (11748164_a_at) / RFU JSRP1 (11732532_at) / Fold change /veh JSRP1 (11732532_at) / RFU KRTAP10-11 (11738290_x_at) / Fold change /veh KRTAP10-11 (11738290_x_at) / RFU MYO3A (11730013_a_at) / Fold change /veh MYO3A (11730013_a_at) / RFU EBF3 (11725865_a_at) / Fold change /veh EBF3 (11725865_a_at) / RFU CAMK2N1 (11719241_x_at) / Fold change /veh CAMK2N1 (11719241_x_at) / RFU C5orf56 (11738088_a_at) / Fold change /veh C5orf56 (11738088_a_at) / RFU OLFML3 (11715873_a_at) / Fold change /veh OLFML3 (11715873_a_at) / RFU LOC100653217 /// NTM (11731650_a_at) / Fold change /veh LOC100653217 /// NTM (11731650_a_at) / RFU MAPK11 (11762145_a_at) / Fold change /veh MAPK11 (11762145_a_at) / RFU FIZ1 (11724087_x_at) / Fold change /veh FIZ1 (11724087_x_at) / RFU OASL (11726364_x_at) / Fold change /veh OASL (11726364_x_at) / RFU SOX15 (11748057_x_at) / Fold change /veh SOX15 (11748057_x_at) / RFU CD79A (11719716_a_at) / Fold change /veh CD79A (11719716_a_at) / RFU HIST1H1D (11736915_at) / Fold change /veh HIST1H1D (11736915_at) / RFU CASKIN2 (11723855_a_at) / Fold change /veh CASKIN2 (11723855_a_at) / RFU LOC730098 (11760151_x_at) / Fold change /veh LOC730098 (11760151_x_at) / RFU OR4N2 (11742367_at) / Fold change /veh OR4N2 (11742367_at) / RFU PRRT2 (11749266_a_at) / Fold change /veh PRRT2 (11749266_a_at) / RFU SNX32 (11753110_a_at) / Fold change /veh SNX32 (11753110_a_at) / RFU CDHR5 (11726645_a_at) / Fold change /veh CDHR5 (11726645_a_at) / RFU RCAN1 (11760418_a_at) / Fold change /veh RCAN1 (11760418_a_at) / RFU FAM167A (11723789_a_at) / Fold change /veh FAM167A (11723789_a_at) / RFU FAM26E (11764081_at) / Fold change /veh FAM26E (11764081_at) / RFU ISYNA1 (11749810_s_at) / Fold change /veh ISYNA1 (11749810_s_at) / RFU ACY1 (11761880_at) / Fold change /veh ACY1 (11761880_at) / RFU 11764098_at / Fold change /veh 11764098_at / RFU SAMD14 (11745864_x_at) / Fold change /veh SAMD14 (11745864_x_at) / RFU NPB (11741838_a_at) / Fold change /veh NPB (11741838_a_at) / RFU TMPRSS6 (11731388_a_at) / Fold change /veh TMPRSS6 (11731388_a_at) / RFU KRTAP10-2 (11738614_at) / Fold change /veh KRTAP10-2 (11738614_at) / RFU ARHGAP8 /// PRR5-ARHGAP8 (11727945_x_at) / Fold change /veh ARHGAP8 /// PRR5-ARHGAP8 (11727945_x_at) / RFU KRTAP5-7 /// NADSYN1 (11734609_at) / Fold change /veh KRTAP5-7 /// NADSYN1 (11734609_at) / RFU RASL12 (11751679_a_at) / Fold change /veh RASL12 (11751679_a_at) / RFU CDKN2B (11736163_a_at) / Fold change /veh CDKN2B (11736163_a_at) / RFU PRF1 (11729649_at) / Fold change /veh PRF1 (11729649_at) / RFU, ZNF638 /// ZNF638-IT1 / Fold change vs veh, ZNF638 /// ZNF638-IT1 / RFU, PANK3 / Fold change vs veh, PANK3 / RFU, SH3YL1 / Fold change vs veh, SH3YL1 / RFU, ZEB2 / Fold change vs veh, ZEB2 / RFU, NRIP1 / Fold change vs veh, NRIP1 / RFU, PTTG1IP / Fold change vs veh, PTTG1IP / RFU, CAPN2 / Fold change vs veh, CAPN2 / RFU, MED14 / Fold change vs veh, MED14 / RFU, SNORA58 / Fold change vs veh, SNORA58 / RFU, C1orf63 / Fold change vs veh, C1orf63 / RFU, LRRFIP1 / Fold change vs veh, LRRFIP1 / RFU, NDUFAF7 / Fold change vs veh, NDUFAF7 / RFU, SLC12A2 / Fold change vs veh, SLC12A2 / RFU, IBTK / Fold change vs veh, IBTK / RFU, ESF1 / Fold change vs veh, ESF1 / Fold change vs veh, TMEM50B / RFU, TAOK1 / Fold change vs veh, TAOK1 / RFU, ACBD3 / Fold change vs veh, ACBD3 / RFU, TMA16 / Fold change vs veh, TMA16 / RFU, RWDD3 / Fold change vs veh, RWDD3 / RFU, BCAT1 / Fold change vs veh, BCAT1 / RFU, EDEM3 / Fold change vs veh, EDEM3 / RFU, TMEM33 / Fold change vs veh, TMEM33 / RFU, WDR75 / Fold change vs veh, WDR75 / RFU, AHCTF1 / Fold change vs veh, AHCTF1 / RFU, TFRC / Fold change vs veh, TFRC / RFU, ZDHHC17 / Fold change vs veh, ZDHHC17 / RFU, NOM1 / Fold change vs veh, NOM1 / RFU, ARL8B / Fold change vs veh, ARL8B / RFU, ZBTB11 / Fold change vs veh, ZBTB11 / RFU, TAMM41 / Fold change vs veh, TAMM41 / RFU, KIAA1704 /// LOC100996395 / Fold change vs veh, KIAA1704 /// LOC100996395 / RFU, ING1 / Fold change vs veh, ING1 / RFU, TRMT61B / Fold change vs veh, TRMT61B / RFU, FUBP3 / Fold change vs veh, FUBP3 / RFU, TP53 / Fold change vs veh, TP53 / RFU, TNKS2 / Fold change vs veh, TNKS2 / RFU, ZFP14 / Fold change vs veh, ZFP14 / RFU, ACTR2 / Fold change vs veh, ACTR2 / RFU, PPP3R1 / Fold change vs veh, PPP3R1 / RFU, PIK3R1 / Fold change vs veh, PIK3R1 / RFU, HNRNPA1 / Fold change vs veh, HNRNPA1 / RFU, RNF170 / Fold change vs veh, RNF170 / RFU, ZNF28 / Fold change vs veh, ZNF28 / RFU, RNGTT / Fold change vs veh, RNGTT / RFU, OGT / Fold change vs veh, OGT / RFU, BRD1 / Fold change vs veh, BRD1 / RFU, MARS / Fold change vs veh, MARS / RFU, ZNF655 / Fold change vs veh, ZNF655 / RFU, FAHD1 / Fold change vs veh, FAHD1 / RFU, BDP1 / Fold change vs veh, BDP1 / RFU, LRRCC1 / Fold change vs veh, LRRCC1 / RFU, ARID1A / Fold change vs veh, ARID1A / RFU, ZNF146 / Fold change vs veh, ZNF146 / RFU, ZNF330 / Fold change vs veh, ZNF330 / RFU, GPN3 / Fold change vs veh, GPN3 / RFU, C9orf123 / Fold change vs veh, C9orf123 / RFU, N4BP2L2 / Fold change vs veh, N4BP2L2 / RFU, ARFIP1 / Fold change vs veh, ARFIP1 / RFU, FAM179B / Fold change vs veh, FAM179B / RFU, BCL10 / Fold change vs veh, BCL10 / RFU, UHRF1BP1L / Fold change vs veh, UHRF1BP1L / RFU, BET1 / Fold change vs veh, BET1 / RFU, CNOT2 / Fold change vs veh, CNOT2 / RFU, ZNF268 / Fold change vs veh, ZNF268 / Fold change vs veh, ZNF507 / RFU, DGCR2 / Fold change vs veh, DGCR2 / RFU, WDSUB1 / Fold change vs veh, WDSUB1 / Fold change vs veh, HSP90B1 /// MIR3652 / RFU, ADSS / Fold change vs veh, ADSS / RFU, GK / Fold change vs veh, GK / RFU, ZNF148 / Fold change vs veh, ZNF148 / RFU, TAF9 / Fold change vs veh, TAF9 / RFU, SLC1A5 / Fold change vs veh, SLC1A5 / RFU, SLMO2 / Fold change vs veh, SLMO2 / RFU, ABCC4 / Fold change vs veh, ABCC4 / RFU, LOC101060439 /// RAP1B / Fold change vs veh, LOC101060439 /// RAP1B / RFU, RFX7 / Fold change vs veh, RFX7 / RFU, GTPBP10 / Fold change vs veh, GTPBP10 / RFU, CNEP1R1 / Fold change vs veh, CNEP1R1 / RFU, BIVM-ERCC5 /// ERCC5 / Fold change vs veh, BIVM-ERCC5 /// ERCC5 / RFU, ILF3 / Fold change vs veh, ILF3 / RFU 11762660_at / Fold change /veh 11762660_at / RFU VCAN (11757783_s_at) / Fold change /veh VCAN (11757783_s_at) / RFU DDX43 (11728927_at) / Fold change /veh DDX43 (11728927_at) / RFU KRT8 (11758188_x_at) / Fold change /veh KRT8 (11758188_x_at) / RFU NKD1 (11759106_at) / Fold change /veh NKD1 (11759106_at) / RFU SRD5A1 (11742802_a_at) / Fold change /veh SRD5A1 (11742802_a_at) / RFU TPSAB1 /// TPSB2 (11721975_s_at) / Fold change /veh TPSAB1 /// TPSB2 (11721975_s_at) / RFU GSTM3 (11746129_a_at) / Fold change /veh GSTM3 (11746129_a_at) / RFU IL23R (11737362_x_at) / Fold change /veh IL23R (11737362_x_at) / RFU TMEM51 (11727254_a_at) / Fold change /veh TMEM51 (11727254_a_at) / RFU PIWIL2 (11732686_x_at) / Fold change /veh PIWIL2 (11732686_x_at) / RFU ORM1 (11744905_x_at) / Fold change /veh ORM1 (11744905_x_at) / RFU CCDC152 (11743942_at) / Fold change /veh CCDC152 (11743942_at) / RFU ECM1 (11717891_a_at) / Fold change /veh ECM1 (11717891_a_at) / RFU IL23R (11748794_a_at) / Fold change /veh IL23R (11748794_a_at) / RFU TNFAIP8L3 (11732012_x_at) / Fold change /veh TNFAIP8L3 (11732012_x_at) / RFU MBOAT4 (11741988_at) / Fold change /veh MBOAT4 (11741988_at) / RFU 11764193_at / Fold change /veh 11764193_at / RFU TMEM53 (11763286_at) / Fold change /veh TMEM53 (11763286_at) / RFU MAGEB2 (11727129_at) / Fold change /veh MAGEB2 (11727129_at) / RFU TMEM200A (11744735_a_at) / Fold change /veh TMEM200A (11744735_a_at) / RFU CCDC152 (11751479_a_at) / Fold change /veh CCDC152 (11751479_a_at) / RFU FAM211A (11726209_a_at) / Fold change /veh FAM211A (11726209_a_at) / RFU RGS16 (11746705_a_at) / Fold change /veh RGS16 (11746705_a_at) / RFU VCAN (11755009_s_at) / Fold change /veh VCAN (11755009_s_at) / RFU RHOB (11743442_s_at) / Fold change /veh RHOB (11743442_s_at) / RFU RGS16 (11720943_a_at) / Fold change /veh RGS16 (11720943_a_at) / RFU RGS16 (11720944_at) / Fold change /veh RGS16 (11720944_at) / RFU, VPS4B / Fold change vs veh, VPS4B / RFU, CREB1 / Fold change vs veh, CREB1 / RFU, DNAJC13 / Fold change vs veh, DNAJC13 / RFU, GNAQ / Fold change vs veh, GNAQ / RFU, CDK5R1 / Fold change vs veh, CDK5R1 / RFU, ZRANB3 / Fold change vs veh, ZRANB3 / RFU, CUL4A / Fold change vs veh, CUL4A / RFU, CCNY / Fold change vs veh, CCNY / RFU, UFL1 / Fold change vs veh, UFL1 / RFU, COG3 / Fold change vs veh, COG3 / RFU, DIAPH2 / Fold change vs veh, DIAPH2 / RFU, SKA2 / Fold change vs veh, SKA2 / RFU, AFF3 / Fold change vs veh, AFF3 / RFU, LMF1 / Fold change vs veh, LMF1 / RFU, IPO11 / Fold change vs veh, IPO11 / RFU, DFFB / Fold change vs veh, DFFB / RFU, FOXP1 / Fold change vs veh, FOXP1 / RFU, CARD8 / Fold change vs veh, CARD8 / RFU, STRN3 / Fold change vs veh, STRN3 / RFU, ADK / Fold change vs veh, ADK / RFU, RASSF2 / Fold change vs veh, RASSF2 / RFU, WIPF1 / Fold change vs veh, WIPF1 / RFU, LARP1B / Fold change vs veh, LARP1B / RFU, RASA1 / Fold change vs veh, RASA1 / RFU, RB1 / Fold change vs veh, RB1 / RFU, PPFIA1 / Fold change vs veh, PPFIA1 / RFU, MAT2A / Fold change vs veh, MAT2A / RFU, CCT5 / Fold change vs veh, CCT5 / RFU, WDR92 / Fold change vs veh, WDR92 / RFU, CUX1 / Fold change vs veh, CUX1 / RFU, TTC7A / Fold change vs veh, TTC7A / RFU, TMEM135 / Fold change vs veh, TMEM135 / RFU, DEPTOR / Fold change vs veh, DEPTOR / RFU, CPM / Fold change vs veh, CPM / RFU, DNAJB6 / Fold change vs veh, DNAJB6 / RFU, CACNA2D3 / Fold change vs veh, CACNA2D3 / RFU, DTX4 / Fold change vs veh, DTX4 / RFU, TFCP2 / Fold change vs veh, TFCP2 / RFU, GMCL1 /// GMCL1P1 / Fold change vs veh, GMCL1 /// GMCL1P1 / RFU, AEBP2 / Fold change vs veh, AEBP2 / RFU, SNHG1 /// SNORD22 /// SNORD25 /// SNORD26 /// SNORD27 /// SNORD28 /// SNORD29 /// SNORD31 / Fold change vs veh, SNHG1 /// SNORD22 /// SNORD25 /// SNORD26 /// SNORD27 /// SNORD28 /// SNORD29 /// SNORD31 / Fold change (Aza/veh), C12orf56 (ProbeSet 11735607_a_at) / Fold change (ACY-1035/veh), C12orf56 (ProbeSet 11735607_a_at) / Fold change (Aza/veh), FGFR1OP (ProbeSet 11751329_s_at) / Fold change (ACY-1035/veh), FGFR1OP (ProbeSet 11751329_s_at) / Fold change (Aza/veh), VPS36 (ProbeSet 11739960_a_at) / Fold change (ACY-1035/veh), VPS36 (ProbeSet 11739960_a_at) / RFU SYPL1 (11715823_x_at) / Fold change /veh SYPL1 (11715823_x_at) / RFU IGFBP7 (11715501_s_at) / Fold change /veh IGFBP7 (11715501_s_at) / RFU REEP3 (11722064_at) / Fold change /veh REEP3 (11722064_at) / RFU IGLL1 (11728026_x_at) / Fold change /veh IGLL1 (11728026_x_at): dose or concentration left out as unconfirmed
Details: ProbeSet 11719185_x_at; LIST B

Nc1ncn([C@@H]2O[C@H](CO)[C@@H](O)[C@H]2O)c(=O)n1 [azacitidine]
Fold change vs veh, N4BP2L2: 0.90
